Test results as given in patent publication US20030073618A1, “Compounds comprising disulfide-containing peptides and nitrogenous bases, and medical uses thereof” (priority 2001, published 2003).
Where two headings read alike, the source gives them in different places. Marks after values point to notes of the source that are not given here.

Columns and labels:
hepatitis B virus (HBV) [1] = assay: Efficacy study in chronic viral hepatitis B, 62 patients (Tables 47-49); type: in vivo, human; settings: month 1 (after treatment)
Excerpt: State of patient upon completion of treatment.

hepatitis B virus (HBV) [2] = assay: as above; type: in vivo, human
ATP-ase/helicase = ATP-ase/helicase activity in lysate of donor lymphocyte nuclei
[3] = tested on: ATP-ase/helicase (NS3 of hepatitis C virus)
[4] = tested on: white rats with DMNA-induced liver cirrhosis; assay: Experimental dimethylnitrosamine (DMNA)-induced liver cirrhosis in rats; type: in vivo
Experimental: The method of Jezequel, A. M. et al. was used to induce liver cirrhosis in the rats. (Dimethylnitrosamine-induced cirrhosis. Evidence for an immunological mechanism. J. […] DMNA was dissolved by normal saline. To obtain considerable cirrhosis 4 such injection cycles were sufficient. For morphologic examination after narcotized euthanasia samples of liver tissue from central and right side lobes were taken. The liver samples were fixated by mixture of formalin, alcohol and acetic acid. […] The van-Gison stained samples where collagen fibers had red color were used for the study. […] By number of pixels forming the selected objects a relative square occupied by developed collagen (connective tissue) in the liver tissue was calculated. The measurement results were statistically processed. The difference significance between mean samples using the Student criterion with significance level of p=0.05. The morphological alterations were assessed on the samples with blind marking reducing risk of aggravation of the study results. The pathologic process and agent efficacy were assessed by clinical signs (weight, appearance, ascites, motional activity, death) as well as morphologic ones after animal necropsy with following morphologic liver sample examination. After development of pathologic process, i.e. in 4 weeks after the DMNA introduction onset, all animals were randomized in 4 groups of 12 animals in each. […] The agents were introduced every other day intramuscularly, in femur muscle.

hepatitis C virus (HCV) = assay: Efficacy study in chronic viral hepatitis C, 74 patients (Tables 54-55)
[5] = month 2 (1 month after treatment)
[6] = month 4 (3 months after treatment)
[7] = 100 μg/ml, 100 pg M13 phage DNA
[8] = 100 μg/ml, 200 pg M13 phage DNA
[9] = compared with GSSG-I and GSSG-IMP
[10] = 100 μg/ml, 500 pg M13 phage DNA
[11] = 100 μg/ml, 800 pg M13 phage DNA

CC(=O)OCC(CCn1cnc2cnc(N)nc21)COC(C)=O [Famvir]
ALT in Chronic HBV Infection (hepatitis B virus (HBV) [1]): **70.2 ± 9.1 U/L
HbsAg in Chronic HBV Infection (hepatitis B virus (HBV) [1]): **150.5 ± 10.43 ng/mL
PCR (%) in Chronic HBV Infection (hepatitis B virus (HBV) [1]): **50.0* %
ALT in Chronic HBV Infection (hepatitis B virus (HBV) [2]; Baseline (before treatment)): 165.7 ± 13.8 U/L
HbsAg in Chronic HBV Infection (hepatitis B virus (HBV) [2]; Baseline (before treatment)): 157.8 ± 8.84 ng/mL
PCR (%) in Chronic HBV Infection (hepatitis B virus (HBV) [2]; Baseline (before treatment)): 100%
ALT in Chronic HBV Infection (hepatitis B virus (HBV) [2]; [5]): **75.9 ± 9.6 U/L
HbsAg in Chronic HBV Infection (hepatitis B virus (HBV) [2]; [5]): **153.5 ± 10.14 ng/mL
PCR (%) in Chronic HBV Infection (hepatitis B virus (HBV) [2]; [5]): **60.0%
ALT in Chronic HBV Infection (hepatitis B virus (HBV) [2]; [6]): **77.9 ± 10.2 U/L
HbsAg in Chronic HBV Infection (hepatitis B virus (HBV) [2]; [6]): **132.5 ± 43.76 ng/mL
PCR (%) in Chronic HBV Infection (hepatitis B virus (HBV) [2]; [6]): **20.0%

N[C@@H](CCC(=O)N[C@@H](CSSC[C@H](NC(=O)CC[C@H](NP(=O)(O)OC[C@H]1O[C@@H](n2ccc(=O)[nH]c2=O)[C@H](O)[C@@H]1O)C(=O)O)C(=O)NCC(=O)[O-])C(=O)NCC(=O)[O-])C(=O)O.[Na+].[Na+] [GSSG-UMP]
Radioactive fraction, high-molecular (ATP-ase/helicase; 10 μg/ml, 5 pg M13 phage DNA): 16 ± 1/
Radioactive fraction, low-molecular (ATP-ase/helicase; 10 μg/ml, 5 pg M13 phage DNA): 84 ± 5
Radioactive fraction, high-molecular (ATP-ase/helicase; 10 μg/ml, 20 pg M13 phage DNA): 20 ± 2/
Radioactive fraction, low-molecular (ATP-ase/helicase; 10 μg/ml, 20 pg M13 phage DNA): 80 ± 5
Radioactive fraction, high-molecular (ATP-ase/helicase; 10 μg/ml, 50 pg M13 phage DNA): 41 ± 32/
Radioactive fraction, low-molecular (ATP-ase/helicase; 10 μg/ml, 50 pg M13 phage DNA): 59 ± 5
Radioactive fraction, high-molecular (ATP-ase/helicase; 10 μg/ml, 100 pg M13 phage DNA): 72 ± 4.5/
Radioactive fraction, low-molecular (ATP-ase/helicase; 10 μg/ml, 100 pg M13 phage DNA): 28 ± 2.5
Radioactive fraction, high-molecular (ATP-ase/helicase; 10 μg/ml, 200 pg M13 phage DNA): 92 ± 7/
Radioactive fraction, low-molecular (ATP-ase/helicase; 10 μg/ml, 200 pg M13 phage DNA): 8 ± 2
Radioactive fraction, high-molecular (ATP-ase/helicase; 50 μg/ml, 5 pg M13 phage DNA): 32.5 ± 1.5*/
Radioactive fraction, low-molecular (ATP-ase/helicase; 50 μg/ml, 5 pg M13 phage DNA): 67.5 ± 5.5
Radioactive fraction, high-molecular (ATP-ase/helicase; 50 μg/ml, 20 pg M13 phage DNA): 37.5 ± 2.5*/
Radioactive fraction, low-molecular (ATP-ase/helicase; 50 μg/ml, 20 pg M13 phage DNA): 62.5 ± 5.5
Radioactive fraction, high-molecular (ATP-ase/helicase; 50 μg/ml, 50 pg M13 phage DNA): 59 ± 5*/
Radioactive fraction, low-molecular (ATP-ase/helicase; 50 μg/ml, 50 pg M13 phage DNA): 41 ± 4
Radioactive fraction, high-molecular (ATP-ase/helicase; 50 μg/ml, 100 pg M13 phage DNA): 80 ± 6/
Radioactive fraction, low-molecular (ATP-ase/helicase; 50 μg/ml, 100 pg M13 phage DNA): 20 ± 3.5
Radioactive fraction, high-molecular (ATP-ase/helicase; 50 μg/ml, 200 pg M13 phage DNA): 90.5 ± 6/
Radioactive fraction, low-molecular (ATP-ase/helicase; 50 μg/ml, 200 pg M13 phage DNA): 9.5 ± 1.5
Radioactive fraction, high-molecular (ATP-ase/helicase; 100 μg/ml, 5 pg M13 phage DNA): 42 ± 3*/
Radioactive fraction, low-molecular (ATP-ase/helicase; 100 μg/ml, 5 pg M13 phage DNA): 58 ± 4
Radioactive fraction, high-molecular (ATP-ase/helicase; 100 μg/ml, 20 pg M13 phage DNA): 49.5 ± 4*/
Radioactive fraction, low-molecular (ATP-ase/helicase; 100 μg/ml, 20 pg M13 phage DNA): 50.5 ± 5
Radioactive fraction, high-molecular (ATP-ase/helicase; 100 μg/ml, 50 pg M13 phage DNA): 67 ± 5*/
Radioactive fraction, low-molecular (ATP-ase/helicase; 100 μg/ml, 50 pg M13 phage DNA): 33 ± 3.5
Radioactive fraction, high-molecular (ATP-ase/helicase; [7]): 84 ± 6.5/
Radioactive fraction, low-molecular (ATP-ase/helicase; [7]): 16 ± 1.5
Radioactive fraction, high-molecular (ATP-ase/helicase; [8]): 92.5 ± 8/
Radioactive fraction, low-molecular (ATP-ase/helicase; [8]): 7.5 ± 2
Relative inhibition of ATP-ase/helicase activity (ATP-ase/helicase; [9]): inhibits ATP-ase/helicase activity most of all
Radioactive fraction, high-molecular ([3]; 10 μg/ml, 20 pg M13 phage DNA): 16 ± 1/
Radioactive fraction, low-molecular ([3]; 10 μg/ml, 20 pg M13 phage DNA): 84 ± 5
Radioactive fraction, high-molecular ([3]; 10 μg/ml, 50 pg M13 phage DNA): 17.5 ± 1.5/
Radioactive fraction, low-molecular ([3]; 10 μg/ml, 50 pg M13 phage DNA): 82.5 ± 8.5
Radioactive fraction, high-molecular ([3]; 10 μg/ml, 200 pg M13 phage DNA): 45 ± 4/
Radioactive fraction, low-molecular ([3]; 10 μg/ml, 200 pg M13 phage DNA): 55 ± 5
Radioactive fraction, high-molecular ([3]; 10 μg/ml, 500 pg M13 phage DNA): 73.5 ± 5.5/
Radioactive fraction, low-molecular ([3]; 10 μg/ml, 500 pg M13 phage DNA): 27.5 ± 1.5
Radioactive fraction, high-molecular ([3]; 10 μg/ml, 800 pg M13 phage DNA): 92.0 ± 5/
Radioactive fraction, low-molecular ([3]; 10 μg/ml, 800 pg M13 phage DNA): 8 ± 1
Radioactive fraction, high-molecular ([3]; 50 μg/ml, 20 pg M13 phage DNA): 32 ± 2.5*/
Radioactive fraction, low-molecular ([3]; 50 μg/ml, 20 pg M13 phage DNA): 78 ± 7
Radioactive fraction, high-molecular ([3]; 50 μg/ml, 50 pg M13 phage DNA): 34 ± 3*/
Radioactive fraction, low-molecular ([3]; 50 μg/ml, 50 pg M13 phage DNA): 66 ± 7
Radioactive fraction, high-molecular ([3]; 50 μg/ml, 200 pg M13 phage DNA): 51 ± 4/
Radioactive fraction, low-molecular ([3]; 50 μg/ml, 200 pg M13 phage DNA): 49 ± 5
Radioactive fraction, high-molecular ([3]; 50 μg/ml, 500 pg M13 phage DNA): 74 ± 5/
Radioactive fraction, low-molecular ([3]; 50 μg/ml, 500 pg M13 phage DNA): 26 ± 2
Radioactive fraction, high-molecular ([3]; 50 μg/ml, 800 pg M13 phage DNA): 92.5 ± 6.5/
Radioactive fraction, low-molecular ([3]; 50 μg/ml, 800 pg M13 phage DNA): 7.5 ± 1
Radioactive fraction, high-molecular ([3]; 100 μg/ml, 20 pg M13 phage DNA): 36 ± 2*/
Radioactive fraction, low-molecular ([3]; 100 μg/ml, 20 pg M13 phage DNA): 64 ± 5
Radioactive fraction, high-molecular ([3]; 100 μg/ml, 50 pg M13 phage DNA): 41 ± 4*/
Radioactive fraction, low-molecular ([3]; 100 μg/ml, 50 pg M13 phage DNA): 59 ± 6
Radioactive fraction, high-molecular [3, 8]: 57.5 ± 7.5*/
Radioactive fraction, low-molecular [3, 8]: 42.5 ± 3.5
Radioactive fraction, high-molecular [3, 10]: 75.5 ± 6.5/
Radioactive fraction, low-molecular [3, 10]: 24.5 ± 3.5
Radioactive fraction, high-molecular [3, 11]: 92.5 ± 6.5/
Radioactive fraction, low-molecular [3, 11]: 7.5 ± 1
Relative inhibition of ATP-ase/helicase activity [3, 9]: maximal inhibitory effect

C[S+](CC[C@H](N)C(=O)[O-])C[C@H]1O[C@@H](n2cnc3c(N)ncnc32)[C@H](O)[C@@H]1O (some centres unmarked) [Heptral, S-adenosyl-methionine]
Rat weight ([4]; 1 treatment week): 191.0 g
Rat weight ([4]; 3 treatment weeks): 212 g
Relative square of the connective tissue in a liver section ([4]; 3 weeks after cirrhosis modeling completion): 8.215 ± 0.751%
Collagen amount lowered comparing to the normal saline control (times) ([4]; 6-week dosing): 1.7 times
Rat weight ([4]; 6 treatment weeks): 232 g
Relative square of the connective tissue in a liver section ([4]; 6 weeks after cirrhosis modeling completion): 7.781 ± 0.943 %
Decrease of liver fibrosis-formation rate ([4]; comparison agent): 35%
Collagen amount lowered comparing to the normal saline control (times) ([4]; treatment for 3 weeks): 1.1 times

Nc1ccn([C@H]2CC[C@@H](CO)O2)c(=O)n1 [Hivid]
ALT in Chronic HCV Infection (hepatitis C virus (HCV); Baseline (before treatment)): 187.5 ± 48.4 U/L
ALT in Chronic HCV Infection (hepatitis C virus (HCV); month 1 (after treatment)): **190 ± 71.1 U/L
ALT in Chronic HCV Infection (hepatitis C virus (HCV); [5]): **153 ± 25.3 U/L
ALT in Chronic HCV Infection (hepatitis C virus (HCV); [6]): **151 ± 25.2 U/L
